Test results: US20200289474A1, “METHODS OF TREATING PAIN WITH A THIAZOLINE ANTI-HYPERALGESIC” (priority 2019, published 2020)
Where “and” joins values, the source holds several entries; their conditions need not be identical. Identical values can stand only once. Like-named read-outs stand apart in the source and are kept apart here.

Tests used:
MDCKII control cells = assay: cytotoxicity by lactate dehydrogenase (LDH) release; assay type: cell-based
OAT3 = molecular target: T1, OAT3 (Homo sapiens, UniProt Q8TCC7); assay: transporter inhibition, HEK293 cells, probe accumulation; assay type: in vitro ADME
T1 construct: expressed in transfected cells; host or cells: HEK293 cells
T1 sequence (Q8TCC7 1-542): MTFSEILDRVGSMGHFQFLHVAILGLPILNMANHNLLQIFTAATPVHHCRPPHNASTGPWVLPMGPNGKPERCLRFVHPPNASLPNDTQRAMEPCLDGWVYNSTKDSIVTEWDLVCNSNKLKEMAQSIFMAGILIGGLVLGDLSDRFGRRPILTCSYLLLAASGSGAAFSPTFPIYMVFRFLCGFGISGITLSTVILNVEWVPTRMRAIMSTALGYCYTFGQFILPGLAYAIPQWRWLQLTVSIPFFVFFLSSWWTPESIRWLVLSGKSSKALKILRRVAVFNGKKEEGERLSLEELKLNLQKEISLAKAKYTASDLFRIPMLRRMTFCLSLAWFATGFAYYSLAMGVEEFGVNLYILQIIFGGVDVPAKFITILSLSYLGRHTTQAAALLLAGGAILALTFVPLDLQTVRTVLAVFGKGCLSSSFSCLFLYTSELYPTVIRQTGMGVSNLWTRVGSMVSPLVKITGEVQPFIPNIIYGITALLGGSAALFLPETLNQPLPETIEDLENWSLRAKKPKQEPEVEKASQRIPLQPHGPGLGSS

[1] = stability in plasma from a variety of species; assay type: in vitro ADME
[2] = rat 7 day repeat IV dose study; assay type: in vivo; conditions: 7 day IV
Description: In a third study, SD rats (3/sex/group) were administered Compound 1 IV via the tail vein for 7 days at doses of 0, 75 or 150 mg/kg/day. The vehicle was 15% dimethylacetamide, 85% phosphate buffered saline. Blood was collected from all surviving animals for toxicokinetic analysis approximately 2 hours after the last dose on Day 7.

[3] = dog 28-day repeat dose PO study; assay type: in vivo; conditions: for Cmax: dog 28 Day PO
Description: Beagle dogs (4/sex/group plus 2/sex/group for control and high dose animals for recovery) were administered daily doses of 0, 100, 250 or 400 mg/kg/day of Compound 1 in 0.5% HPMC. […] Dogs in Group 1 (Vehicle Control) were bled once at approximately 2-4 hours post-dose on those days.

BCRP = molecular target: T2, BCRP (Homo sapiens, UniProt Q9UNQ0); assay: transporter inhibition, MDCKII-BCRP cells, prazosin transport; assay type: in vitro ADME
T2 construct: expressed in transfected cells
T2 sequence (Q9UNQ0 1-655): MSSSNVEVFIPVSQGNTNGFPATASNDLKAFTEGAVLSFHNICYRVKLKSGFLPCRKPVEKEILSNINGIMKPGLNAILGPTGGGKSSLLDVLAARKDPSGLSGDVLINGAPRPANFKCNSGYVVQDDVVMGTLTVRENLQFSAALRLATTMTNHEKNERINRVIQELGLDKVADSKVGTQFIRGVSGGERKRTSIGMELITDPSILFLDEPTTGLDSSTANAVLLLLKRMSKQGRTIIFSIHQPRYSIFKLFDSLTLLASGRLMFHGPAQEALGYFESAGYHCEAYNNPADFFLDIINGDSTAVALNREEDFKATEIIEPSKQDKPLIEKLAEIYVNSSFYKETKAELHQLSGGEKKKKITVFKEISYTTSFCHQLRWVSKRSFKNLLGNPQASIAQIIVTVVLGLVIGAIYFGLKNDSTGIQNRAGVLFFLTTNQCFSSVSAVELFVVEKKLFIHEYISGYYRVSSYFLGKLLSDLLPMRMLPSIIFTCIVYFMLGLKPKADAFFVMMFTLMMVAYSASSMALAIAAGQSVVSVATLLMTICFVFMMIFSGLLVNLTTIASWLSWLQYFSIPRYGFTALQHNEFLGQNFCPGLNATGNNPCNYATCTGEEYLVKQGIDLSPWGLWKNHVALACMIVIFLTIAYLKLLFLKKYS

[4] = tested on: incision-induced hyperalgesia; assay: mouse model of severe incision; assay type: in vivo; conditions: 10 mg/kg IP daily for 15 days; Days 1, 3, 6, 8, 10, 13, 15 and 21
From the text: Two incisional pain models were used to assess Compound 1 effects on hyperalgesia. The first model is referred to as the Brennan model in which, under anesthesia, a 1 cm longitudinal incision to the skin and underlying fascia of a rat hindpaw is made. The second is a variation but is a more invasive procedure in which the skin and muscle are spread apart using forceps which creates a longer-lasting hypersensitivity.
In a mouse model of severe incision (tissue and muscle spread with forceps), animals were at baseline for mechanical thresholds prior to incision and then given a daily dose of Compound 1 (10 mg/kg IP) or vehicle for 15 days.

[5] = effect of food on oral bioavailability in rats; assay type: in vivo, rat
Description: The effect of food on oral bioavailability was determined.

P-gp = molecular target: T3, P-gp (Homo sapiens, UniProt P08183); assay: transporter inhibition, Caco-2 cells, digoxin transport; assay type: in vitro ADME
T3 construct: Caco-2 cells; endogenous in cells; host or cells: Caco-2 cells

normal sensation = normal sensation in uninjured animals

T3 sequence (P08183 whole entry): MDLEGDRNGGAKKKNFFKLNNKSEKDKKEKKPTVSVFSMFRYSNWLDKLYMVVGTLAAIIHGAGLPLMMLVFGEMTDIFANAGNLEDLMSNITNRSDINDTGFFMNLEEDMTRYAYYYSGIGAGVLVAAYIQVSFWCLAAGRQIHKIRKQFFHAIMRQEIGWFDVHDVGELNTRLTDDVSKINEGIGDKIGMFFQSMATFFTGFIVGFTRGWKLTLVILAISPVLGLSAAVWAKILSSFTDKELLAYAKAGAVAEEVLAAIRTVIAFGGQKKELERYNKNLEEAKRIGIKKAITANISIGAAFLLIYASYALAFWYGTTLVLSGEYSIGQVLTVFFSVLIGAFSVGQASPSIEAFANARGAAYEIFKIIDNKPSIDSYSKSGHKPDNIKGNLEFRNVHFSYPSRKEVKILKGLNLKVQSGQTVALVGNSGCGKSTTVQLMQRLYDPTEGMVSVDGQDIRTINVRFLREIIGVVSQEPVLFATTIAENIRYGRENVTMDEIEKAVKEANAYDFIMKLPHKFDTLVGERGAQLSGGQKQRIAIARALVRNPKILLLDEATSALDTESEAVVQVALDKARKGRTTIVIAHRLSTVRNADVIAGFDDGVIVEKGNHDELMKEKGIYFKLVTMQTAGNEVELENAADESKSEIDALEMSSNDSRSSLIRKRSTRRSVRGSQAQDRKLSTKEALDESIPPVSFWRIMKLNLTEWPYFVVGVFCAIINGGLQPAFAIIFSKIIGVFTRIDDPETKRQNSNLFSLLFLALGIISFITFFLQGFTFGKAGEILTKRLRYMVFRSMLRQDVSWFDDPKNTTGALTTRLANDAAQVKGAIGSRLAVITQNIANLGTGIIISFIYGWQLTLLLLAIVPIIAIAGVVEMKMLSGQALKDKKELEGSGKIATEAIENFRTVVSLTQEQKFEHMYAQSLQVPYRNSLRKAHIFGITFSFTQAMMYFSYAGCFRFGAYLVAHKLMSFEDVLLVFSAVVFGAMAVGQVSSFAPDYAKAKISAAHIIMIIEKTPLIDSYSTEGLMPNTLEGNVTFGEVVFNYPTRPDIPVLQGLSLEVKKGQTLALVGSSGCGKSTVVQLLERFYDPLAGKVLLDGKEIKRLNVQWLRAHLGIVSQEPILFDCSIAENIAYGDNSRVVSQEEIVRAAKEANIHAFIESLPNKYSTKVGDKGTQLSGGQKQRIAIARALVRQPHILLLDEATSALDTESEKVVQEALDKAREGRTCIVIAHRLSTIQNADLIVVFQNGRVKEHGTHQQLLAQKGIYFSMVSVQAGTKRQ

With `CC1(C)SC(Nc2ccccc2O)=N[C@@H]1C(=O)O.Cl` [Compound 1, (R)-2-(2-hydroxyphenylamino)-5,5-dimethyl-4,5-dihydrothiazole-4-carboxylic acid mono-hydrochloride] the “percent cytotoxicity (LDH release)” value (MDCKII control cells; 100 μM) was 31.3%, the “percent cytotoxicity (LDH release)” value (MDCKII control cells; 600 μM) was 33.6% and the “inhibition” value (OAT3) was “weakly inhibits”. The stability in plasma [1] was “stable”, the “Conc in rat plasma” value ([2]; 75 mg/kg, F, 2 h after last dose Day 7, individual animals, mono-hydrochloride, 75 mg/kg) was 2670 ng/mL and 3250 ng/mL and 3180 ng/mL and the concentration at 2 h ([2]; 75 mg/kg, F, 2 h after last dose Day 7, individual animals, mono-hydrochloride, 75 mg/kg, read-out: Conc in rat plasma) was 12.20 µM and 11.94 µM. The “Conc in rat plasma” value ([2]; 75 mg/kg, M, 2 h after last dose Day 7, individual animals, mono-hydrochloride, 75 mg/kg) was 2350 ng/mL and 2380 ng/mL and 4310 ng/mL, the concentration at 2 h ([2]; 75 mg/kg, M, 2 h after last dose Day 7, individual animals, mono-hydrochloride, 75 mg/kg, read-out: Conc in rat plasma) was 8.94 µM and 16.18 µM and the “Conc in rat plasma” value ([2]; 150 mg/kg, F, 2 h after last dose Day 7, individual animals, mono-hydrochloride, 150 mg/kg) was 5990 ng/mL and 2430 ng/mL and 5530 ng/mL. For the same compound, the concentration at 2 h ([2]; 150 mg/kg, F, 2 h after last dose Day 7, individual animals, mono-hydrochloride, 150 mg/kg, read-out: Conc in rat plasma) was 22.49 µM and 9.12 µM and 20.76 µM, the “Conc in rat plasma” value ([2]; 150 mg/kg, M, 2 h after last dose Day 7, individual animals, mono-hydrochloride, 150 mg/kg) was 4280 ng/mL and 6910 ng/mL and 6560 ng/mL and the concentration at 2 h ([2]; 150 mg/kg, M, 2 h after last dose Day 7, individual animals, mono-hydrochloride, 150 mg/kg, read-out: Conc in rat plasma) was 25.95 µM and 24.63 µM. For the same compound, the concentration at 2 h ([2]; female, Sprague-Dawley (SD), rat, plasma, iv, 75 mg/kg, 75 mg/kg, F, 2 h after last dose Day 7, individual animals, read-out: Conc in rat plasma) was 2670 ng/mL and 10 µM, the concentration at 2 h ([2]; female, Sprague-Dawley (SD), rat, plasma, iv, 75 mg/kg, 75 mg/kg, F, 2 h after last dose Day 7, read-out: Mean Conc in rat plasma) was 3030 ng/mL and the concentration at 2 h ([2]; female, Sprague-Dawley (SD), rat, plasma, iv, 150 mg/kg, 150 mg/kg, F, 2 h after last dose Day 7, read-out: Mean Conc in rat plasma) was 4650 ng/mL. For the same compound, the concentration at 2 h ([2]; male, Sprague-Dawley (SD), rat, plasma, iv, 75 mg/kg, 75 mg/kg, M, 2 h after last dose Day 7, individual animals, read-out: Conc in rat plasma) was 2350 ng/mL and 8.82 µM, the concentration at 2 h ([2]; male, Sprague-Dawley (SD), rat, plasma, iv, 75 mg/kg, 75 mg/kg, M, 2 h after last dose Day 7, read-out: Mean Conc in rat plasma) was 3010 ng/mL and the concentration at 2 h ([2]; male, Sprague-Dawley (SD), rat, plasma, iv, 150 mg/kg, 150 mg/kg, M, 2 h after last dose Day 7, individual animals, read-out: Conc in rat plasma) was 4280 ng/mL and 16.1 µM. For the same compound, the concentration at 2 h ([2]; male, Sprague-Dawley (SD), rat, plasma, iv, 150 mg/kg, 150 mg/kg, M, 2 h after last dose Day 7, read-out: Mean Conc in rat plasma) was 5920 ng/mL, the Tmax at 28 days ([3]; both sexes, beagle, dog, in vivo, po, dog 28-day PO, all animals, read-out: median tmax) was 1 h and the Tmax at 28 days ([3]; both sexes, beagle, dog, in vivo, po, dog 28-day study (summary), read-out: Tmax) was no more than 1 h. For the same compound, the Cmax at 28 days ([3]; both sexes, beagle, in vivo, po, dog 28-day pivotal study, at some doses) was greater than 100000 ng/mL, the “mean t1/2” value ([3]; both, beagle, dog, in vivo, po) was 3.5 h and the Cmax ([3]; Day 1, 100 mg/kg, F) was 69300 ng/mL. The Cmax ([3]; Day 1, 100 mg/kg, M) was 49900 ng/mL, the Cmax ([3]; Day 1, 250 mg/kg, F) was 101000 ng/mL and the Cmax ([3]; Day 1, 250 mg/kg, M) was 104000 ng/mL. It also gave a Cmax ([3]; Day 1, 400 mg/kg, F) of 129000 ng/mL, a Cmax ([3]; Day 1, 400 mg/kg, M) of 128000 ng/mL and a Cmax ([3]; Day 15, 100 mg/kg, F) of 53000 ng/mL. It also gave a Cmax ([3]; Day 15, 100 mg/kg, M) of 50400 ng/mL, a Cmax ([3]; Day 15, 250 mg/kg, F) of 94600 ng/mL and a Cmax ([3]; Day 15, 250 mg/kg, M) of 88000 ng/mL. The Cmax ([3]; Day 15, 400 mg/kg, F) was 123000 ng/mL, the Cmax ([3]; Day 15, 400 mg/kg, M) was 112000 ng/mL and the Cmax ([3]; Day 28, 100 mg/kg, F) was 60800 ng/mL. The Cmax ([3]; Day 28, 100 mg/kg, M) was 45000 ng/mL, the Cmax ([3]; Day 28, 250 mg/kg, F) was 89500 ng/mL and the Cmax ([3]; Day 28, 250 mg/kg, M) was 105000 ng/mL. The Cmax ([3]; Day 28, 400 mg/kg, F) was 131000 ng/mL, the Cmax ([3]; Day 28, 400 mg/kg, M) was 125000 ng/mL and the “inhibition” value (BCRP) was “modestly inhibits”. The “hyperalgesia (mechanical thresholds)” value [4] was “protected from hyperalgesia”, the “peak plasma concentrations, fasted compared to fed” value ([5]; 10 mg/kg oral) was “significantly increased peak plasma concentrations” and the “differences in pharmacokinetic properties, fed vs fasted” value ([5]; 100 mg/kg oral) was “No statistically significant differences”. For the same compound, the “inhibition” value (P-gp) was “does not inhibit” and the “effect on normal sensation” value (normal sensation) was “does not alter normal sensation”.
